Experimental data as given in patent US20250129027A1 (APOGEE PHARMACEUTICALS, INC., priority 2023, published 2025).

Assays:
[1] = target: human recombinant MAGL (Homo sapiens (Human), UniProt Q99685); test: In vitro inhibition of MAGL activity (inhibitor screening kit, 4-nitrophenylacetate); format: biochemical; details: human recombinant MAGL
Method: The inhibitory effect of the compounds on activity of human recombinant MAGL was also studied using a commercial inhibitor screening kit (Cayman Chemicals). In brief, MAGL hydrolyzes 4-nitrophenylacetate resulting in a yellow product, 4-nitrophenol with an absorbance at 405-412 nm, while the inhibitor will inhibit the MAGL activity and thus reduce the yellow signal. The absorbance of the yellow product can be analyzed using the plate reader. Inhibition is calculated as a percentage of the treated sample over the non-treated MAGL control based on the signal values.

[2] = target: human recombinant FAAH (Homo sapiens (Human), UniProt O00519); test: In vitro inhibition of FAAH activity (fluorescent inhibitor screening kit, AMC arachidonoyl amide); format: biochemical; details: human recombinant FAAH; read-out: Inhibition on FAAH activity (IC50)
Sequence of human recombinant FAAH (O00519 whole entry): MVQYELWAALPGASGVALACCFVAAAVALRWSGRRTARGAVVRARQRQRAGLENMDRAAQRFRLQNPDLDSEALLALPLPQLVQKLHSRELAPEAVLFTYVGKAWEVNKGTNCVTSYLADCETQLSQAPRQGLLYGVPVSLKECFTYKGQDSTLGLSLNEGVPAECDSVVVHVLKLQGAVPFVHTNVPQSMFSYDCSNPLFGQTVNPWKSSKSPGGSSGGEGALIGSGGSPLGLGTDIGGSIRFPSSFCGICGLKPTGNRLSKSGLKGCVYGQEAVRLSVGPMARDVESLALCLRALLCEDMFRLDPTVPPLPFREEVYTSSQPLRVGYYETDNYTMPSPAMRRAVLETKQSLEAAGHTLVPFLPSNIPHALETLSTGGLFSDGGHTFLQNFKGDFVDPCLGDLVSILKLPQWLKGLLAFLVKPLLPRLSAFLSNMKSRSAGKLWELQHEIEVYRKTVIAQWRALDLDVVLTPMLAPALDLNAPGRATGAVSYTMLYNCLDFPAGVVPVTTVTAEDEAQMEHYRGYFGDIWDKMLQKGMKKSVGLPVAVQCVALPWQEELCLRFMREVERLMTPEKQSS
From the text: The inhibitory effect of compounds of Formula (I-IV) on the activity of human recombinant FAAH was studied using a commercial inhibitor screening kit (Cayman Chemicals, Godlewski et al., 2010 [19]). In brief, FAAH hydrolyzes AMC arachidonoyl amide resulting in the release of the fluorescent product, while the inhibitor will inhibit the FAAH activity and thus reduce the fluorescent signal. The resulting fluorophore can be analyzed using an excitation wavelength of 340-360 nm and an emission wavelength of 450-465 nm by a plate reader (Synergy H1, Biotek). Inhibition is calculated as a percentage of the treated sample over the non-treated control based on the signal values, and where possible, a range of concentrations of compounds was tested to find the IC50 values (i.e. the concentration of compound that inhibited 50% FAAH activity).

Sequence of human recombinant MAGL (Q99685 whole entry): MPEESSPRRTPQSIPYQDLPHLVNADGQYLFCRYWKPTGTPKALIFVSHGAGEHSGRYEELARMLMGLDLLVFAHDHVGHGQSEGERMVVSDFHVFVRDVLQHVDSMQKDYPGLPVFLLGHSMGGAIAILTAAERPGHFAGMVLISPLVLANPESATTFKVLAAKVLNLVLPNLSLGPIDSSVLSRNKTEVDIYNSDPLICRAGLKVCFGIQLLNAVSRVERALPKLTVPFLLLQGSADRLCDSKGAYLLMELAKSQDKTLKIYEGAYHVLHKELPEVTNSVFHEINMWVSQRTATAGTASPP

Compound | IC50 [1] | IC50 [2]
COc1ccc(OC(=O)NCc2ccccc2)cc1-c1cncc(-c2cccs2)c1 [Example 67, 4-methoxy-3-(5-(thiophen-2-yl)pyridin-3-yl)phenyl benzylcarbamate] | > 10 µM | > 1 µM
COc1ccc(OC(=O)NC2CCCC2)cc1-c1cncc(-c2cccs2)c1 [Example 68, 4-methoxy-3-(5-(thiophen-2-yl)pyridin-3-yl)phenyl cyclopentylcarbamate] | ~10 µM | 0.1 to 1 µM
COc1ccc(OC(=O)NC2CCCCC2)cc1-c1cncc(-c2cccs2)c1 [Example 69, 4-methoxy-3-(5-(thiophen-2-yl)pyridin-3-yl)phenyl cyclohexylcarbamate] | > 10 µM | 0.1 to 1 µM
COc1ccc(OC(=O)NC2CCCCCC2)cc1-c1cncc(-c2cccs2)c1 [Example 70, 4-methoxy-3-(5-(thiophen-2-yl)pyridin-3-yl)phenyl cycloheptylcarbamate] | > 10 µM | 0.1 to 1 µM
CCCCCNC(=O)Oc1cccc(-c2cncc(-c3ncco3)c2)c1 [Example 71, 3-(5-(oxazol-2-yl)pyridin-3-yl)phenyl pentylcarbamate] | > 10 µM | 0.01 to 1 µM
CCCCCCCNC(=O)Oc1cccc(-c2cncc(-c3ncco3)c2)c1 [Example 72, 3-(5-(oxazol-2-yl)pyridin-3-yl)phenyl heptylcarbamate] | > 1 µM | 0.001 to 0.01 µM
CCCCCCCCNC(=O)Oc1cccc(-c2cncc(-c3ncco3)c2)c1 [Example 73, 3-(5-(oxazol-2-yl)pyridin-3-yl)phenyl octylcarbamate] | > 10 µM | 0.001 to 0.01 µM
O=C(NCC1CCCCC1)Oc1cccc(-c2cncc(-c3ncco3)c2)c1 [Example 74, 3-(5-(oxazol-2-yl)pyridin-3-yl)phenyl (cyclohexylmethyl)carbamate] | > 1 µM | 0.01 to 0.1 µM
O=C(NC1CCCC1)Oc1cccc(-c2cncc(-c3ncco3)c2)c1 [Example 75, 3-(5-(oxazol-2-yl)pyridin-3-yl)phenyl cyclopentylcarbamate] | > 10 µM | 0.01 to 1 µM
O=C(NC1CCCCC1)Oc1cccc(-c2cncc(-c3ncco3)c2)c1 [Example 76, 3-(5-(oxazol-2-yl)pyridin-3-yl)phenyl cyclohexylcarbamate] | 1 to 10 µM | 0.01 to 1 µM
O=C(NC12CC3CC(CC(C3)C1)C2)Oc1cccc(-c2cncc(-c3ncco3)c2)c1 [Example 77, 3-(5-(oxazol-2-yl)pyridin-3-yl)phenyl ((1s,3s)-adamantan-1-yl)carbamate] | > 10 µM | > 1 µM
CCCCCCCCNC(=O)Oc1ccc(OC)c(-c2cncc(-c3ncco3)c2)c1 [Example 78, 4-methoxy-3-(5-(oxazol-2-yl)pyridin-3-yl)phenyl octylcarbamate] | 1 to 10 µM | 0.01 to 0.1 µM
COc1ccc(OC(=O)NC2CCCC2)cc1-c1cncc(-c2ncco2)c1 [Example 80, 4-methoxy-3-(5-(oxazol-2-yl)pyridin-3-yl)phenyl cyclopentylcarbamate] | > 10 µM | 0.01 to 0.1 µM
COc1ccc(OC(=O)NC2CCCCC2)cc1-c1cncc(-c2ncco2)c1 [Example 81, 4-methoxy-3-(5-(oxazol-2-yl)pyridin-3-yl)phenyl cyclohexylcarbamate] | > 10 µM | 0.01 to 0.1 µM
COc1ccc(OC(=O)NC2CCC(C)CC2)cc1-c1cncc(-c2ncco2)c1 (stereo not drawn) [Example 82, 4-methoxy-3-(5-(oxazol-2-yl)pyridin-3-yl)phenyl (4-methylcyclohexyl)carbamate] | > 10 µM | 0.1 to 1 µM
CCCCCCCCNC(=O)Oc1cc(-c2cncc(-c3ncco3)c2)ccc1OC [Example 84, 2-methoxy-5-(5-(oxazol-2-yl)pyridin-3-yl)phenyl octylcarbamate] | ~10 µM | 0.1 to 1 µM
O=C(NC1CCCC1)Oc1ccc(F)c(-c2cncc(-c3ncco3)c2)c1 [Example 85, 4-fluoro-3-(5-(oxazol-2-yl)pyridin-3-yl)phenyl cyclopentylcarbamate] | > 10 µM | 0.01 to 0.1 µM
CC1CCC(NC(=O)Oc2ccc(F)c(-c3cncc(-c4ncco4)c3)c2)CC1 (stereo not drawn) [Example 86, 4-fluoro-3-(5-(oxazol-2-yl)pyridin-3-yl)phenyl (4-methylcyclohexyl)carbamate] | > 10 µM | 0.01 to 0.1 µM
O=C(NC1CCCCC1)Oc1ccc(OC(F)(F)F)c(-c2cncc(-c3ncco3)c2)c1 [Example 89, 3-(5-(oxazol-2-yl)pyridin-3-yl)-4-(trifluoromethoxy)phenyl cyclohexylcarbamate] | > 10 µM | 0.1 to 1 µM
CC1CCC(NC(=O)Oc2ccc(OC(F)(F)F)c(-c3cncc(-c4ncco4)c3)c2)CC1 (stereo not drawn) [Example 90, 3-(5-(oxazol-2-yl)pyridin-3-yl)-4-(trifluoromethoxy)phenyl (4-methylcyclohexyl)carbamate] | > 1 µM | 0.1 to 1 µM
CCCCCCCCNC(=O)Oc1cc(-c2cncc(-c3ncco3)c2)ccc1C [Example 92, 2-methyl-5-(5-(oxazol-2-yl)pyridin-3-yl)phenyl octylcarbamate] | > 10 µM | 0.1 to 1 µM
Cc1ccc(-c2cncc(-c3ncco3)c2)cc1OC(=O)NCC1CCCCC1 [Example 93, 2-methyl-5-(5-(oxazol-2-yl)pyridin-3-yl)phenyl (cyclohexylmethyl)carbamate] | 1 to 10 µM | > 1 µM
Cc1ccc(-c2cncc(-c3ncco3)c2)cc1OC(=O)NCc1ccccc1 [Example 94, 2-methyl-5-(5-(oxazol-2-yl)pyridin-3-yl)phenyl benzylcarbamate] | > 1 µM | > 1 µM
Cc1ccc(-c2cncc(-c3ncco3)c2)cc1OC(=O)NC1CCCCC1 [Example 95, 2-methyl-5-(5-(oxazol-2-yl)pyridin-3-yl)phenyl cyclohexylcarbamate] | > 1 µM | > 1 µM
Cc1ccc(-c2cncc(-c3ncco3)c2)cc1OC(=O)NC1CCC(C)CC1 (stereo not drawn) [Example 96, 2-methyl-5-(5-(oxazol-2-yl)pyridin-3-yl)phenyl (4-methylcyclohexyl)carbamate] | > 10 µM | > 1 µM
Cc1ccc(-c2cncc(-c3ncco3)c2)cc1OC(=O)NC1CCCCCC1 [Example 97, 2-methyl-5-(5-(oxazol-2-yl)pyridin-3-yl)phenyl cycloheptylcarbamate] | > 1 µM | > 1 µM
Cc1ccc(-c2cncc(-c3ncco3)c2)cc1OC(=O)NC1CCCCCCC1 [Example 98, 2-methyl-5-(5-(oxazol-2-yl)pyridin-3-yl)phenyl cyclooctylcarbamate] | ~1 µM | > 1 µM
Cc1cc(OC(=O)NCC2CCCCC2)cc(-c2cncc(-c3ncco3)c2)c1 [Example 99, 3-methyl-5-(5-(oxazol-2-yl)pyridin-3-yl)phenyl (cyclohexylmethyl)carbamate] | ~10 µM | 0.1 to 1 µM
Cc1cc(OC(=O)NCc2ccccc2)cc(-c2cncc(-c3ncco3)c2)c1 [Example 100, 3-methyl-5-(5-(oxazol-2-yl)pyridin-3-yl)phenyl benzylcarbamate] | > 10 µM | > 1 µM
Cc1cc(OC(=O)NC2CCCCC2)cc(-c2cncc(-c3ncco3)c2)c1 [Example 101, 3-methyl-5-(5-(oxazol-2-yl)pyridin-3-yl)phenyl cyclohexylcarbamate] | > 10 µM | > 1 µM
